Laboratory results as given in PMC9763582, “Analyzing the postulated inhibitory effect of Manumycin A on farnesyltransferase” (Frontiers in Chemistry, 2022).

Assays:
[1] = biological target: T1, C. elegans farnesyltransferase (ceFTase) (Caenorhabditis elegans, UniProt O44501+Q19752); experiment: continuous fluorescence assay with Dansyl-GCVLS and FPP, […]°C; Ki calculated from IC50 […] (Cheng-Prusoff); type: biochemical
T1 construct: gene fntb-1; coding regions of FTα (NM_001392242.1) and FTβ (NM_001392654.1), N-terminal His-tag on β-subunit; with farnesyltransferase α-subunit (ceFNTA)
T1 sequence (Q19752 1-401): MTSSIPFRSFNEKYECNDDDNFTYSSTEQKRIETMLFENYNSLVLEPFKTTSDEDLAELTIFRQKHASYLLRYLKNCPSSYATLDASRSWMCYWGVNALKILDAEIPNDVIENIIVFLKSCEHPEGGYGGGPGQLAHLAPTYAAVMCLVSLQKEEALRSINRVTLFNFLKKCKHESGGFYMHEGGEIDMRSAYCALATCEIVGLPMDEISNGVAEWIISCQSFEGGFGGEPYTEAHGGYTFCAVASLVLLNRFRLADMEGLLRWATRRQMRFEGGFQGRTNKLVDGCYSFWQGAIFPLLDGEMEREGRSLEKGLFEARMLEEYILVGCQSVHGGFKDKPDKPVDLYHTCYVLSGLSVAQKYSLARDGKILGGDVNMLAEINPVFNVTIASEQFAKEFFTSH
T1 sequence (O44501 1-328): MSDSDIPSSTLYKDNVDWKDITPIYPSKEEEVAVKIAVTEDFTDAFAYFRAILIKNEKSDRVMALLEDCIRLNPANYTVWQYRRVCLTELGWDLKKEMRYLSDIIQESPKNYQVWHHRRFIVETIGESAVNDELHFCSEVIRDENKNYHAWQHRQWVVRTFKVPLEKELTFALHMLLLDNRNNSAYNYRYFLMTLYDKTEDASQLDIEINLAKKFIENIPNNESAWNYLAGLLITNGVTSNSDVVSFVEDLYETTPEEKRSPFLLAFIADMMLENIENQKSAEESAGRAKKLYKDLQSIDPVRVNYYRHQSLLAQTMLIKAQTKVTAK

[2] = biological target: T2, human farnesyltransferase (hFTase) (Homo sapiens, UniProt P49354+P49356); experiment: as above; type: biochemical
T2 construct: gene FNTB; IMAC purified FTase, FTα/FTβ heterodimer, His-tagged β-subunit; with farnesyltransferase α-subunit (FNTA)

purified protein = substrate: CC(C)=CCC/C(C)=C/CC/C(C)=C/CO[P@@](=O)(O)OP(=O)(O)O; experiment: purified protein; settings: Zn2+ ([…] ZnCl2 in assay)

CCCC[C@@H](C)/C=C(C)/C=C(\C)C(=O)NC1=C[C@@](O)(/C=C/C=C/C=C/C(=O)NC2=C(O)CCC2=O)[C@@H]2O[C@@H]2C1=O [Manumycin A]
Ki [1]: 3.16 µM
Ki [2]: 4.4 µM

B1: C. elegans farnesyltransferase (ceFTase) (Caenorhabditis elegans) (protein)
chain 1: T1 sequence (Q19752 1-401)
chain 2: T1 sequence (O44501 1-328)
Km (purified protein): 1.3 µM
